In general, EC50 refers to the concentration needed to bring the measured effect to its halfway point.

Molecules are shown by their SMILES.

The assay in a line: Inhibition of NS5A in HCV genotype 1b infected in human HuH7 replicon cells assessed as reduction in subgenomic viral RNA replication treated for 2 days followed by compound washout and subsequent compound dosing measured after 1 day by SEAP reporter gene assay.
For the molecule `COC(=O)N[C@H](C(=O)N1CCC[C@H]1c1ncc(-c2ccc(-c3ccc(-c4cnc([C@@H]5CCCN5C(=O)[C@@H](NC(=O)OC)c5ccccc5)s4)cc3)cc2)s1)c1ccccc1`, the concentration giving a half-maximal response (EC50) is 41 nM.

Regarding `O=C(N[C@@H](C(=O)N1CCC[C@H]1c1ncc(-c2ccc(-c3ccc(-c4cnc([C@@H]5CCCN5C(=O)[C@H](NC(=O)C5CC5)C5CCCCC5)s4)cc3)cc2)s1)C1CCCCC1)C1CC1`, the concentration giving a half-maximal response (EC50) is over 50000 nM.

In the case of `O=C(CCN1CCOCC1)N[C@H](C(=O)N1CCC[C@H]1c1ncc(-c2ccc(-c3ccc(-c4cnc([C@@H]5CCCN5C(=O)[C@H](NC(=O)CCN5CCOCC5)c5ccccc5)s4)cc3)cc2)s1)c1ccccc1`, the half-maximal effective concentration (EC50) came to 2.6 nM.

Turning to `O=C(N[C@@H](C(=O)N1CCC[C@H]1c1ncc(-c2ccc(-c3ccc(-c4cnc([C@@H]5CCCN5C(=O)[C@H](NC(=O)c5cccs5)c5ccccc5)s4)cc3)cc2)s1)c1ccccc1)c1cccs1`, the EC50 is 1.4 nM. With `O=C(N[C@@H](C(=O)N1CCC[C@H]1c1ncc(-c2ccc(-c3ccc(-c4cnc([C@@H]5CCCN5C(=O)[C@H](NC(=O)C5CCC5)c5ccccc5)s4)cc3)cc2)s1)c1ccccc1)C1CCC1`, the EC50 amounted to 0.007 nM. Turning to `O=C(N[C@H](C(=O)N1CCC[C@H]1c1ncc(-c2ccc(-c3ccc(-c4cnc([C@@H]5CCCN5C(=O)[C@H](NC(=O)N5CCOCC5)c5ccccc5)s4)cc3)cc2)s1)c1ccccc1)N1CCOCC1`, the concentration giving a half-maximal response (EC50) stood at 1.1 nM. `O=C(N[C@H](C(=O)N1CCC[C@H]1c1ncc(-c2ccc(-c3ccc(-c4cnc([C@@H]5CCCN5C(=O)[C@H](NC(=O)C5CCCCC5)c5ccccc5)s4)cc3)cc2)s1)c1ccccc1)C1CCCCC1`: the 50% effective concentration (EC50) came out at 40 nM.

`CN1CCN(CCC(=O)N[C@@H](C(=O)N2CCC[C@H]2c2ncc(-c3ccc(-c4ccc(-c5cnc([C@@H]6CCCN6C(=O)[C@H](NC(=O)CCN6CCN(C)CC6)c6ccccc6)s5)cc4)cc3)s2)c2ccccc2)CC1`: the 50% effective concentration (EC50) worked out at 7.2 nM. Consider `COC(=O)N[C@H](C(=O)N1CCC[C@H]1c1ncc(-c2ccc(-c3ccc(-c4cnc([C@@H]5CCCN5C(=O)[C@H](NC(=O)OC)c5ccccc5)s4)cc3)cc2)s1)c1ccccc1`, for which the EC50 is 108 nM.

In the case of `COC(=O)N[C@@H](C(=O)N1CCC[C@H]1c1ncc(-c2ccc(-c3ccc(-c4cnc([C@@H]5CCCN5C(=O)[C@H](NC(=O)OC)c5ccccc5)s4)cc3)cc2)s1)c1ccccc1`, the EC50 stood at 0.19 nM. As to `CCOC(=O)N[C@H](C(=O)N1CCC[C@H]1c1ncc(-c2ccc(-c3ccc(-c4cnc([C@@H]5CCCN5C(=O)[C@@H](NC(=O)OCC)C(C)C)s4)cc3)cc2)s1)C(C)C`, the EC50 was 327 nM. As for `CC(C)[C@H](NC(=O)Oc1ccccc1)C(=O)N1CCC[C@H]1c1ncc(-c2ccc(-c3ccc(-c4cnc([C@@H]5CCCN5C(=O)[C@@H](NC(=O)Oc5ccccc5)C(C)C)s4)cc3)cc2)s1`, the figure is 2820 nM. Under `COC(=O)N[C@@H](C)C(=O)N1CCC[C@H]1c1ncc(-c2ccc(-c3ccc(-c4cnc([C@@H]5CCCN5C(=O)[C@H](C)NC(=O)OC)s4)cc3)cc2)s1` stands 159 nM. Under `CCC[C@H](NC(=O)OC)C(=O)N1CCC[C@H]1c1ncc(-c2ccc(-c3ccc(-c4cnc([C@@H]5CCCN5C(=O)[C@H](CCC)NC(=O)OC)s4)cc3)cc2)s1` stands 123 nM. With `COC(=O)N[C@@H](CC(C)C)C(=O)N1CCC[C@H]1c1ncc(-c2ccc(-c3ccc(-c4cnc([C@@H]5CCCN5C(=O)[C@H](CC(C)C)NC(=O)OC)s4)cc3)cc2)s1`, the concentration giving a half-maximal response (EC50) was found to be 179 nM. Under `CC(C)C[C@@H](NC(=O)C1CC1)C(=O)N1CCC[C@H]1c1ncc(-c2ccc(-c3ccc(-c4cnc([C@@H]5CCCN5C(=O)[C@@H](CC(C)C)NC(=O)C5CC5)s4)cc3)cc2)s1` stands 27 nM; under `CC(C)[C@@H](NC(=O)C1CC1)C(=O)N1CCC[C@H]1c1ncc(-c2ccc(-c3ccc(-c4cnc([C@@H]5CCCN5C(=O)[C@H](NC(=O)C5CC5)C(C)C)s4)cc3)cc2)s1`, 732 nM; under `CCC[C@@H](NC(=O)C1CC1)C(=O)N1CCC[C@H]1c1ncc(-c2ccc(-c3ccc(-c4cnc([C@@H]5CCCN5C(=O)[C@@H](CCC)NC(=O)C5CC5)s4)cc3)cc2)s1`, 92 nM.

Turning to `CC[C@@H](NC(=O)C1CC1)C(=O)N1CCC[C@H]1c1ncc(-c2ccc(-c3ccc(-c4cnc([C@@H]5CCCN5C(=O)[C@@H](CC)NC(=O)C5CC5)s4)cc3)cc2)s1`, the EC50 came out at 433 nM. Consider `O=C(CCN1CCCCC1)N[C@H](C(=O)N1CCC[C@H]1c1ncc(-c2ccc(-c3ccc(-c4cnc([C@@H]5CCCN5C(=O)[C@H](NC(=O)CCN5CCCCC5)c5ccccc5)s4)cc3)cc2)s1)c1ccccc1`, for which the EC50 came to 16 nM.

On to `O=C(CCN1CCCC1)N[C@H](C(=O)N1CCC[C@H]1c1ncc(-c2ccc(-c3ccc(-c4cnc([C@@H]5CCCN5C(=O)[C@H](NC(=O)CCN5CCCC5)c5ccccc5)s4)cc3)cc2)s1)c1ccccc1`, for which the 50% effective concentration (EC50) was found to be 23 nM. Under `O=C(CCn1cccc1)N[C@H](C(=O)N1CCC[C@H]1c1ncc(-c2ccc(-c3ccc(-c4cnc([C@@H]5CCCN5C(=O)[C@H](NC(=O)CCn5cccc5)c5ccccc5)s4)cc3)cc2)s1)c1ccccc1` stands 0.23 nM; under `O=C(N[C@H](C(=O)N1CCC[C@H]1c1ncc(-c2ccc(-c3ccc(-c4cnc([C@@H]5CCCN5C(=O)[C@H](NC(=O)N5CCCCC5)c5ccccc5)s4)cc3)cc2)s1)c1ccccc1)N1CCCCC1`, 1.9 nM; under `O=C(N[C@H](C(=O)N1CCC[C@H]1c1ncc(-c2ccc(-c3ccc(-c4cnc([C@@H]5CCCN5C(=O)[C@H](NC(=O)N5CCCC5)c5ccccc5)s4)cc3)cc2)s1)c1ccccc1)N1CCCC1`, 1.3 nM. Under `O=C(N[C@H](C(=O)N1CCC[C@H]1c1ncc(-c2ccc(-c3ccc(-c4cnc([C@@H]5CCCN5C(=O)[C@H](NC(=O)c5cccs5)c5ccccc5)s4)cc3)cc2)s1)c1ccccc1)c1cccs1` stands 110 nM; under `O=C(N[C@H](C(=O)N1CCC[C@H]1c1ncc(-c2ccc(-c3ccc(-c4cnc([C@@H]5CCCN5C(=O)[C@H](NC(=O)c5ccoc5)c5ccccc5)s4)cc3)cc2)s1)c1ccccc1)c1ccoc1`, 0.63 nM; under `O=C(N[C@H](C(=O)N1CCC[C@H]1c1ncc(-c2ccc(-c3ccc(-c4cnc([C@@H]5CCCN5C(=O)[C@H](NC(=O)c5ccco5)c5ccccc5)s4)cc3)cc2)s1)c1ccccc1)c1ccco1`, 1.7 nM. As for `O=C(N[C@H](C(=O)N1CCC[C@H]1c1ncc(-c2ccc(-c3ccc(-c4cnc([C@@H]5CCCN5C(=O)[C@H](NC(=O)c5cccnc5)c5ccccc5)s4)cc3)cc2)s1)c1ccccc1)c1cccnc1`, the figure is 2.1 nM; as for `O=C(N[C@H](C(=O)N1CCC[C@H]1c1ncc(-c2ccc(-c3ccc(-c4cnc([C@@H]5CCCN5C(=O)[C@H](NC(=O)c5ccccc5)c5ccccc5)s4)cc3)cc2)s1)c1ccccc1)c1ccccc1`, 272 nM; as for `O=C(N[C@H](C(=O)N1CCC[C@H]1c1ncc(-c2ccc(-c3ccc(-c4cnc([C@@H]5CCCN5C(=O)[C@H](NC(=O)C5CCC5)c5ccccc5)s4)cc3)cc2)s1)c1ccccc1)C1CCC1`, 0.45 nM.

With `O=C(N[C@H](C(=O)N1CCC[C@H]1c1ncc(-c2ccc(-c3ccc(-c4cnc([C@@H]5CCCN5C(=O)[C@H](NC(=O)C5CC5)c5ccccc5)s4)cc3)cc2)s1)c1ccccc1)C1CC1`, the EC50 is 1.5 nM. Turning to `CC(C)(C)C(=O)N[C@H](C(=O)N1CCC[C@H]1c1ncc(-c2ccc(-c3ccc(-c4cnc([C@@H]5CCCN5C(=O)[C@H](NC(=O)C(C)(C)C)c5ccccc5)s4)cc3)cc2)s1)c1ccccc1`, the EC50 came out at 52 nM.

For the origin of these results see BindingDB's records for doi:10.1016/j.ejmech.2019.02.016 (National Health Research Institutes, 2019).
